Data taken from ChEMBL document CHEMBL1201862, “PubChem BioAssay data set” (2004).
Calls of active or inactive are those of the source.

Experiments:
BJ [1] = test: BJ-TERT-LT-ST fibroblast viability loss – cell-based, RAS-independent, luminescence, dose response (AID 1935); assay type: functional; conditions: Homo sapiens;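 note: BJ fibroblasts immortalized with TERT plus LT and ST oncogenes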
BJ [2] = test: cells; assay type: functional, cell-based; conditions: Homo sapiens
BJ [3] = test: BJ-TERT fibroblast viability loss – cell-based, RAS-independent, luminescence, dose response (AID 1933); assay type: functional; conditions: Homo sapiens
[4] = molecular target: T1, Calpain-2 catalytic subunit (Sus scrofa, UniProt P43367); test: m-calpain protease blockers, concentration series – biochemical, fluorogenic peptide substrate, dose response (AID 1420); assay type: functional
T1 sequence (P43367 whole entry): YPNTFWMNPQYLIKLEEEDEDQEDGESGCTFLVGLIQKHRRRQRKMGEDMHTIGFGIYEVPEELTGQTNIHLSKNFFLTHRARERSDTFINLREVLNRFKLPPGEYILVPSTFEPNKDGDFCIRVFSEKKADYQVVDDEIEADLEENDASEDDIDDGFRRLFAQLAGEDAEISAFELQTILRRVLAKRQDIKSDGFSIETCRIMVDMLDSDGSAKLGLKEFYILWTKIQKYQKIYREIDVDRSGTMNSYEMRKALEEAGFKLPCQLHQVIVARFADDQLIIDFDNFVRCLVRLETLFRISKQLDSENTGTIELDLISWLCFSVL

[5] = DRD fibroblast viability loss – cell-based, non-viral oncogenic, luminescence, dose response (AID 1934); assay type: functional; conditions: Homo sapiens
[6] = molecular target: DNA dC->dU-editing enzyme APOBEC-3A (Homo sapiens, UniProt P31941); test: Dose Response confirmation of small molecule APOBEC3A DNA Deaminase Inhibitors via a fluorescence-based single-stranded DNA deaminase assay. [Related pubchem assays (depositor defined):AID493011, AID493024]; assay type: functional
DNA dC->dU-editing enzyme APOBEC-3A, sequence (P31941 whole entry): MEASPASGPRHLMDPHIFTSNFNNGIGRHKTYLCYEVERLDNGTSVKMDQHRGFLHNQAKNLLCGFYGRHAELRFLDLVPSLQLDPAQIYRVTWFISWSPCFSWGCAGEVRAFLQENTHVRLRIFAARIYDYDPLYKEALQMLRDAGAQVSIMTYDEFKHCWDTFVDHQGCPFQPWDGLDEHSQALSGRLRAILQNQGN

[7] = molecular target: DNA dC->dU-editing enzyme APOBEC-3G (Homo sapiens, UniProt Q9HC16); assay type: functional;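 note: Dose-response counterscreen measuring inhibition of APOBEC3G DNA deaminase activity, run while confirming APOBEC3A inhibitors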
DNA dC->dU-editing enzyme APOBEC-3G, sequence (Q9HC16 whole entry): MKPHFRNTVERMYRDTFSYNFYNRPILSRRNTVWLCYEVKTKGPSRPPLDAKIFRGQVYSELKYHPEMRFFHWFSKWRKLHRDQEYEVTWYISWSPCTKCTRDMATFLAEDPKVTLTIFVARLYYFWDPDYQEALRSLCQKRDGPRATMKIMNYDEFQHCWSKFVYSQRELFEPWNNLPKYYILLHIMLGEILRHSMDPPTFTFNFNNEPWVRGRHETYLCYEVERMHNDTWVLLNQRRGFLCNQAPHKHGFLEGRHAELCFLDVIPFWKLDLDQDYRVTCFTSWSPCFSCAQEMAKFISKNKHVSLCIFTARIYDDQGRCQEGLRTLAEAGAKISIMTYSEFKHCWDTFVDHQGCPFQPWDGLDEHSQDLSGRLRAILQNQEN

[8] = molecular target: T2, DNA repair protein RAD52 homolog (Homo sapiens, UniProt P43351); assay type: functional, biochemical
T2 sequence (P43351 whole entry): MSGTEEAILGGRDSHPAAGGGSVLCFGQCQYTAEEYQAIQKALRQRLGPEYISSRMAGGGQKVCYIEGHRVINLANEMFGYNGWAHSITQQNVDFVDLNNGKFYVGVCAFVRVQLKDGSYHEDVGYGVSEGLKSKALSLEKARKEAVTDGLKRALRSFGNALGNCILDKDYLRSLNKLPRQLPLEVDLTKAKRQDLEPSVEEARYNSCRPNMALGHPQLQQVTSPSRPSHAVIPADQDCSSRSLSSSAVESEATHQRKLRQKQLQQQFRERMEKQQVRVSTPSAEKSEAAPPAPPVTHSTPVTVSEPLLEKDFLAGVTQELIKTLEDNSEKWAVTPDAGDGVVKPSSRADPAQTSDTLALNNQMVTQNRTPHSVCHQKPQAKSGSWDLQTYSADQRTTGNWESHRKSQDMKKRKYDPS

[9] = molecular target: T3, DNA repair and recombination protein RAD54-like (Homo sapiens, UniProt Q92698); test: RAD54 Holliday junction migration blockers – biochemical, fluorescence, cherry-picked samples, dose series, confirmation (AID 651657); assay type: functional
T3 sequence (Q92698 whole entry): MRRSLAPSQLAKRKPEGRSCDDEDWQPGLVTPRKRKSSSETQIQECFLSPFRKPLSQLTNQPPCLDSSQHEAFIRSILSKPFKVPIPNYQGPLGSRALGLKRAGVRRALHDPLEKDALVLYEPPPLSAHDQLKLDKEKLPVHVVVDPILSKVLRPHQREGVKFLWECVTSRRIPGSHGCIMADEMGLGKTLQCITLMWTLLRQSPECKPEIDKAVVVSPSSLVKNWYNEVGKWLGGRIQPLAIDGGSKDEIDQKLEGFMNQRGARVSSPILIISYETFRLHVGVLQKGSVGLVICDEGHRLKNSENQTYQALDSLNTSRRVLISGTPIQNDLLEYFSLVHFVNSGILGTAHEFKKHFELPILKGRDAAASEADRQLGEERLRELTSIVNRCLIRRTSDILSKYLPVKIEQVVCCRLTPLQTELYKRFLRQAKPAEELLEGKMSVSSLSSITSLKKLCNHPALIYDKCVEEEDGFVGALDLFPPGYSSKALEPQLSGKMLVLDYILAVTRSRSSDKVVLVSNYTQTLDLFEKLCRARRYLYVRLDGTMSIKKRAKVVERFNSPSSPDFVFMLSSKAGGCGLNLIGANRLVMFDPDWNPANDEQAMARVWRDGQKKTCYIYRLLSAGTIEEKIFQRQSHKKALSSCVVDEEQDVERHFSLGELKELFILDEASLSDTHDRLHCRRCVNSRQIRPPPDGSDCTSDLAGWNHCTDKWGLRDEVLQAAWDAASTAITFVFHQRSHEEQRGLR

[10] = Luminescence Cell-Based Dose Retest to Confirm Inhibitors of Cancer Stem Cells. [Related pubchem assays (depositor defined):AID2717, AID2721]; assay type: functional; conditions: Homo sapiens
Streptokinase A = molecular target: T4, Streptokinase A (Streptococcus pyogenes serotype M1, UniProt P10520); test: viability-normalized secreted streptokinase activity reduction – plasminogen activation absorbance, OD405, dose response (AID 1914); assay type: functional, Streptococcus pyogenes M1 GAS;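 note: secreted streptokinase activity via plasminogen activation per viability signal from cell pellet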
T4 sequence (P10520 whole entry): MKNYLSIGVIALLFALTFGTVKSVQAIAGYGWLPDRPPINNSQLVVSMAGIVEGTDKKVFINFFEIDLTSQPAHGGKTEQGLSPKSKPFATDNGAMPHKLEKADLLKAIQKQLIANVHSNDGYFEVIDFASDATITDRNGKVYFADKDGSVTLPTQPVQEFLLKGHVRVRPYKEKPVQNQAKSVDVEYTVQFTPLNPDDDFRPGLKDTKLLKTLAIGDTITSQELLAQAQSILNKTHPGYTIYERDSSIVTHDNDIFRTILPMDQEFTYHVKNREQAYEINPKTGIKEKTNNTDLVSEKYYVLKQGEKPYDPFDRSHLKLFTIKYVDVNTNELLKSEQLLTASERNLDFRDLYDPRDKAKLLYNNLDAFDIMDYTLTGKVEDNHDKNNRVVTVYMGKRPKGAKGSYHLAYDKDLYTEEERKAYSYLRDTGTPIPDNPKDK

Streptococcus = test: GAS UMAA2166 growth inhibition – luminescence, BacTiterGlo, counter-screen for streptokinase expression inhibitor project, dose response (AID 1915); assay type: functional, organism-based;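 note: potency for reduction of bacterial viability or growth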
[11] = tested on: Streptococcus sp. 'group A'; test: Streptococcus pyogenes SK(-)GAS viability under kanamycin – luminescence, BacTiterGlo, confirmation, counter-screen for streptokinase expression inhibitor project, dose response (AID 1900); assay type: functional, organism-based
[12] = A Cell Based Secondary Assay To Explore Cytotoxicity of Compounds that Sensitize Mycobacterium Tuberculosis to Beta-Lactam Antibiotics.; assay type: functional
[13] = molecular target: T5, Replicative DNA helicase DnaB (Mycobacterium tuberculosis, UniProt P9WMR3); test: DnaB intein splicing inhibitors, dose response, biochemical, cell-free fluorescence (AID 449749); assay type: functional
T5 sequence (P9WMR3 whole entry): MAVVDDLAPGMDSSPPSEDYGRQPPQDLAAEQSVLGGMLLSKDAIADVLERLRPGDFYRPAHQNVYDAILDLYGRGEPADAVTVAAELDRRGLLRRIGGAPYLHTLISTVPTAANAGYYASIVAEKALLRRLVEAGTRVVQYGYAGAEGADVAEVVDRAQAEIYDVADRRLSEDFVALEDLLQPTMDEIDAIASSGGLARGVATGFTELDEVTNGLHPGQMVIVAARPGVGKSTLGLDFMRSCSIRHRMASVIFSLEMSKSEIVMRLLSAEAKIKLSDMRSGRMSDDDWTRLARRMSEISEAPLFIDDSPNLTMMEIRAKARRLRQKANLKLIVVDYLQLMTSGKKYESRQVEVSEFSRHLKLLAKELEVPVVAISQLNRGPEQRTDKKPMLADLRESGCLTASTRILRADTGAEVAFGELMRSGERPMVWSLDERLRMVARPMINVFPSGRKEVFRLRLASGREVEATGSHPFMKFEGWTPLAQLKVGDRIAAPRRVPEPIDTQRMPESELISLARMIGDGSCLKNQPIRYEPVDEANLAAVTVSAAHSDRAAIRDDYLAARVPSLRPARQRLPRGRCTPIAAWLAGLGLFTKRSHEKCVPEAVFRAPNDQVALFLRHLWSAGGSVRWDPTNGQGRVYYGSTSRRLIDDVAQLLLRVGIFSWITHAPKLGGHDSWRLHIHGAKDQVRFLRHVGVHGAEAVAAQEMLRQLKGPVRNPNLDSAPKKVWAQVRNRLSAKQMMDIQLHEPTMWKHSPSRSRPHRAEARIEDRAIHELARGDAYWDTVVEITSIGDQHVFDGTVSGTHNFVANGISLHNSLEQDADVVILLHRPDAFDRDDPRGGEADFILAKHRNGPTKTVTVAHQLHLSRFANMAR

Protein RecA = molecular target: T6, Protein RecA (Mycobacterium tuberculosis, UniProt P9WHJ3); test: Fluorescence Cell-Free Homogeneous Dose Retest to Identify Inhibitors of RecA-Intein Splicing Activity. [Related pubchem assays (depositor defined):AID2097, AID2223, AID489010, AID492950]; assay type: functional
T6 sequence (P9WHJ3 whole entry): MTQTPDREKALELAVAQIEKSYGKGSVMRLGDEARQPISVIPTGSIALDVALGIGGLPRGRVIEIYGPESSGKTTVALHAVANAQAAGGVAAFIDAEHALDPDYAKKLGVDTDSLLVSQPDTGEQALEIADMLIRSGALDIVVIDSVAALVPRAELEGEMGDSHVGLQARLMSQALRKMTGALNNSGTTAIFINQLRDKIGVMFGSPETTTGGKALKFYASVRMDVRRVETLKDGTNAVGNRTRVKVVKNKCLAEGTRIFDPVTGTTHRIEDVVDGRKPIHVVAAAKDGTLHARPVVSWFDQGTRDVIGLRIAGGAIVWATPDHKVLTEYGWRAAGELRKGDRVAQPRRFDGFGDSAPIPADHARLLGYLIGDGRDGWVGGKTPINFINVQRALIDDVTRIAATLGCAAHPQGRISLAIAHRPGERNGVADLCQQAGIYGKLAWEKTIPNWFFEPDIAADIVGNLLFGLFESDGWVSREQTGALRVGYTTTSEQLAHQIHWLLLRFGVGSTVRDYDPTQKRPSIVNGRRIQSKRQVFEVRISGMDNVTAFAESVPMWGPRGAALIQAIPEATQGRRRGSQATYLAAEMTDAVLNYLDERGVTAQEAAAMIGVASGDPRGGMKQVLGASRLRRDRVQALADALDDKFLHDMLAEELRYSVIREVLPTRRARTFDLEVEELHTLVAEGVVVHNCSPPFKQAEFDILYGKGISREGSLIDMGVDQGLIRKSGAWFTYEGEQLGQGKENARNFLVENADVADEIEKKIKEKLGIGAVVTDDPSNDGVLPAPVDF

[14] = viability of PTEN-deleted HCT116 cells – cell-based, HCT116 PTEN knockout, dose response (AID 1047); assay type: functional;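 note: HCT116 colon tumor cells with PTEN knocked out; cells exposed to compound for 60 hours before readout; potency for loss of cell viability measured by luminescence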
[15] = viability of HCT116 lacking mutant beta-catenin – cell-based, human colon tumor, dose response (AID 1045); assay type: functional;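 note: HCT116 colon tumor cells with beta catenin knocked out; cells exposed to compound for 60 hours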
[16] = Luminescence-based cell-based high throughput dose response assay to identify activators of the DAF-12 from the parasite S. stercoralis (ssDAF-12).; assay type: functional
[17] = molecular target: T7, Carboxy-terminal domain RNA polymerase II polypeptide A small phosphatase 1 (Homo sapiens, UniProt Q9GZU7); test: CTDSP1 inhibitors, concentration-response, biochemical, absorbance readout, ultra-high-throughput screen actives (AID 540297); assay type: functional
T7 sequence (Q9GZU7 whole entry): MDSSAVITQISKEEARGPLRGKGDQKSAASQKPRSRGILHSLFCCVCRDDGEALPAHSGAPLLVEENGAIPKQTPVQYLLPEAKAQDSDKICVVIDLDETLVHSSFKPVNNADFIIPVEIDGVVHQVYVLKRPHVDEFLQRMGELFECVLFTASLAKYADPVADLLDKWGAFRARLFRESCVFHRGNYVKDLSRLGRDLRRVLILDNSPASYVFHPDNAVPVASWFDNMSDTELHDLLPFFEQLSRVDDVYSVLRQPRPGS

## CCN1C(=O)/C(=C\c2cn(-c3ccccc3)nc2-c2cccnc2)SC1=S
BJ [1]
  EC50: > 150 µM (inconclusive)
BJ [2]
  EC50: > 150 µM (not active)
BJ [3]
  EC50: 7.41 µM (inconclusive)
[4]
  IC50: > 50 µM (not active)
[5]
  EC50: 17.9 µM (active)

## CCc1noc(C)c1C(=O)Nc1cc(S(=O)(=O)N2CCOCC2)ccc1N1CCN(CC)CC1
[6]
  IC50: 3.46 µM (active)
[7]
  IC50: 5.53 µM (active)

## Cc1cccn2c(=O)c3cc(C(=O)NC4CCCC4)c(=N)n(CCCN4CCOCC4)c3nc12
[8]
  AC50: 9.37 µM (active)
[9]
  AC50: 21.5 µM (active)

## C=C(C)C1Cc2c(C)nn(-c3cccc4ccccc34)c2C1 (stereo not drawn)
[10]
  AC50: 6.69 µM (active)
Streptokinase A
  EC50: 16.8 µM (active)
Streptococcus
  EC50: > 150 µM (not active)
[11]
  EC50: 7.08 µM (active)
[12]
  CC50: > 40 µM (active)

## COc1ccc(/C=C2\N=C(SC)N(c3ccccc3OC)C2=O)cc1
[12]
  CC50: 37 µM (active)

## Cc1ccc(OCc2nnc(S)n2C2CCCCC2)cc1
[4]
  IC50: 38.6 µM (not active)

## COc1ccc(N2C(=O)N(Cc3ccc(C)cc3)c3ccccc3S2(=O)=O)cc1
[4]
  IC50: 18.5 µM (not active)

## COc1ccc(NC(=O)COc2ccc(/C=C/c3cc[n+](C)cc3)cc2OC)cc1
[6]
  IC50: 3.69 µM (active)
[7]
  IC50: 3.92 µM (active)

## CCN(CC)c1ccc(N/C=C2\C(=O)NC(=O)N(c3ccc(Cl)cc3)C2=O)cc1
[12]
  CC50: > 40 µM (active)

## COc1ccc(C(=O)C23CC4CC(C2)CC(C(=O)c2ccc(OC)cc2)(C4)C3)cc1
[4]
  IC50: < 0.4 µM (not active)

## COc1c(F)c(F)c(C(=O)Nc2c(C)cc(Br)cc2C)c(F)c1F
[12]
  CC50: 35.6 µM (active)

## O=S(=O)(Cc1ccccc1)c1cnc2ccccc2n1
[13]
  AC50: > 380 µM (inactive)
Protein RecA
  EC50: 18.3 µM (active)
[14]
  EC50: 14.1 µM (active)
[15]
  EC50: 12.2 µM (active)
[12]
  CC50: 34 µM (active)

## COc1cccc(-c2cc(NC=O)c3ncc(-c4cccc(C(=O)NCCN(C)C)c4)n3c2)c1
[8]
  AC50: 3.43 µM (active)
[9]
  AC50: 22.3 µM (active)

## Cc1ccsc1/C=N/Nc1nc2ccccc2s1
[16]
  IC50: > 67.6 µM (inactive)

## O=C(CSc1nc2sccc2c(=O)[nH]1)N1CCN(c2ccccc2)CC1
[6]
  IC50: 11.5 µM (active)
[7]
  IC50: 9.27 µM (active)
[17]
  IC50: 10.7 µM (active)
